The results in this text go back to patent US5639734A, “Disaccharide inflammation inhibitors and uses thereof” (priority 1994, dated 1997).

Entries after “also recorded” stand apart in the source; their conditions may differ. Where two headings read alike, the source gives them in different places. Bounds are passed on as bounds.

For data set [1], the system named is Chinese hamster ovary cells. In words: Uptake of glycosides by Chinese hamster ovary cells, fluorescence assay. The note with it: for Uptake (in words): CHO cells, 37° C., FIG. 1 and 2 (100 μM in FIG. 2); for Uptake: relative to Xylβ-0-2-naphthol 1.0 unit. The procedure:
Confluent monolayers of Chinese hamster ovary cells were incubated with the indicated concentrations of Xylβ-0-2-naphthol at 37° C. for 30 minutes. The amount of glycoside taken up was determined by fluorescence assay.
The various glycosides were added (100 μM) to confluent Chinese hamster ovary cell monolayers and at the times indicated, the amount of glycoside taken up was quantitated by fluorescence assay. Filled circles: Xylβ-0-2-naphthol; filled square: Galβ-0-2-naphthol; unfilled triangle: Galβ1→4Xylβ-0-2-naphthol; filled triangle: Galβ1 →3Galβ0-2-naphthol.
Compounds were dissolved in DMSO and added to growth medium such that the final concentration of vehicle was 0.5% (v/v). Confluent cells were incubated with supplemented growth medium at 37° C. for various times. The cultures were placed on ice, the medium was aspirated and the cells were washed three times with cold PBS containing 1 mg/ml of bovine serum albumin. Cells were solubilized in a small volume of 0.1M NaOH and the extracts were neutralized with one mole equivalent of acetic acid. After centrifuging the samples, the supernatants were applied to Sep-Pak Plus C18 cartridges (Waters Associates) and washed with water (10 ml) and 20% (v/v) methanol in water (5 ml). Bound material was eluted with 5 ml of 40% (v/v) methanol in water and concentrated to dryness. The residue was dissolved in methanol and its fluoresence was measured (SLM-Aminco Instruments). The excitation and emission wavelengths for 2-naphthol derivatives were 293 nm and 395 nm, respectively. Phenanthrol derivatives were excited at 310 nm and the emission was measured at 365 nm.
Animal cells take up β-D-xylosides and prime glycosaminoglycan chains with great efficiency. For priming to occur, the glycoside must pass though the plasma membrane and enter the Golgi where the glycosyltransferases reside. […] Xylβ-0-2-naphthol has three hydroxyl groups, whereas Gal-0-2-naphtholhas four.

Data set [2] concerns pgsA-745 cells (xylosyltransferase deficient Chinese hamster ovary cells). Put plainly: Priming of [35S]glycosaminoglycan chains in xylosyltransferase-deficient CHO mutant pgsA-745 cells. It counts as cell-based. The settings on record: FIG. 3, 5 hours at 37° C.; for Priming of glycosaminoglycan chains (in words): up to 500 μM; for minimal effective concentration: Cricetulus griseus, read-out: Concentration at which glycosaminoglycan chains are primed. How it is done:
Various compounds at the indicated concentrations were provided to confluent Chinese hamster ovary cells in a 96 well plate. Glycosaminoglycan synthesis was measured by autoradiography of [^35 S]-glycosaminoglycan collected on a postively charged nylon membrane. 1: Xylβ-0-2-naphthol; 2: Xylβ1→6Gal-0-2-naphthol; 3: Xylβ1→6Gal(Me)-0-2-naphthol; 4: Xylβ1→6Gal(Me)2 -0-2-naphthol; 5: Xylβ1→6Gal(Me)3 -0-2-naphthol; 6: Xyl(Ac)3 β-0-2-naphthol; 7:Xyl(Ac)3 β1→6Gal(Ac)3 -0-2-naphthol.
Priming of glycosaminoglycan chains was measured in pgsA-745 cells deficient in xylosyltransfersase. The cells were grown to confluence in 96-well microtiter plates (Falcon). Fresh medium (0.2 ml) containing 50 μCi/ml of H2^35 SO4 (25-40 Ci/mg) and the test compounds were added to the wells. The top row of wells contained […] of glycoside and each subsequent row contained a serial dilution (1:3^n, v/v). Cells were incubated for 5 hours at 37° C. and solubilized by adding 20 μl of 0.5M NaOH. The individual wells were adjusted to 0.2% (w/v) Zwittergent 3-12, 25 μg/ml chondroitin sulfate, 0.2M acetic acid and 10 mM Na2 SO4. The samples were transferred to a GeneScreen Plus membrane (Dupont-NEN) placed on top of a piece of 1Chr paper on a vacuum Minifold (Schleicher & Schuell). A wash solution of 0.2% (w/v) Zwittergent 3-12, 0.2M acetic acid and 10 mM Na2 SO4 (0.5 ml) was passed through each well. The membranes were removed from the Minifold, soaked for 5 minutes in 20 ml of wash solution, air-dried and exposed to RX X-ray film for 10-18 hours.
Therefore, uptake of the disaccharide was measured indirectly by the determining the incorporation of ^35 SO4 into glycosaminoglycan chains. To distinguish glycosaminoglycans produced on the glycoside from those made on endogenous proteoglycans, a Chinese hamster ovary cell mutant deficient in xylosyltransferase was made. […] [^35 S]glycosaminoglycan synthesis was measured by incubating mutant cells in a 96 well plate with glycoside derivatives at different doses. The cells and spent media were then transferred to a positively charged nylon membrane to detect newly made chains by autoradiography.

The test system of data set [3] is HL-60 adhesion to activated human umbilical vein endothelial cells (HUVEC). Put plainly: Adhesion of HL-60 cells to TNF-α-activated HUVEC. The format is cell-based. The note with it: for Inhibition of HL-60 / leukocyte adhesion (in words): TNF-α-treated HUVEC, concentration not given.
The next data set relates to sLe^x on HL-60 cells. Put plainly: FACS of sLe^x expression on HL-60 cells with mAb CSLEX-1. The format is cell-based, human. The settings on record: for Inhibition of sialyl Lewis X formation in HL-60 cells (in words): concentration not given.
Data set [4] concerns F9 cells. In words: Priming of [3H]GlcN-labeled oligosaccharides in F9 cells. The format is cell-based, mouse. The note with it: for Priming of oligosaccharides (in words) / Priming: F9 cells; for Priming of oligosaccharides (in words): [3H]GlcN; for Priming: Table I, per μg cell protein, control value (30) subtracted; for Fraction of labeled oligosaccharides that were charged (bound to QAE-Sephadex): anion-exchange chromatography.

Data set [5] deals with F9 cells. In words: Uptake of disaccharides by F9 cells, fluorescence assay. The format is in vitro ADME, mouse. The settings on record: for Uptake: Table I, control value without glycoside (1.0) subtracted.
Where [6] appears, read: listed as peracetylated Galβ1→4GlcNAcβ-0-2-naphthalenemethanol.
Setting [7] is: listed as acetylated Galβ1→4GlcNAcβ-0-2-naphthalenemethanol.

In the case of `OC[C@H]1O[C@@H](O[C@H]2[C@@H](O)[C@@H](CO)O[C@@H](Oc3ccc4ccccc4c3)[C@@H]2O)[C@H](O)[C@@H](O)[C@H]1O` [Galβ1→3Galβ-0-2-naphthol], the “Uptake (in words)” value in data set [1] is given as “not taken up al all”.

Consider Xylβ1→6Gal(Me)2 -0-2-naphthol, for which the “Concentration at which glycosaminoglycan chains are primed” value in data set [2] lay in the range of 2 to 6 µM.

As for Xylβ1→6Gal(Me)-0-2-naphthol, in data set [2], the “Concentration of maximum effect on 35S-glycosaminoglycan synthesis” value is recorded as “approximately 60 μM” and the “Priming of glycosaminoglycan chains (in words)” value is on record as “Higher concentrations were less effective”.

On to `CC(=O)O[C@H]1[C@@H](OC(C)=O)[C@@H](CO[C@@H]2OC[C@@H](OC(C)=O)[C@H](OC(C)=O)[C@H]2OC(C)=O)O[C@@H](Oc2ccc3ccccc3c2)[C@@H]1OC(C)=O` [peracetylated Xylβ1→6Galβ-0-2-naphthol, Xyl(Ac)3 β1→6Gal(Ac)3-0-2-naphthol], for which the minimal effective concentration in data set [2] was ~6 µM.

Take `CO[C@H]1[C@@H](OC)[C@@H](CO[C@@H]2OC[C@@H](O)[C@H](O)[C@H]2O)O[C@@H](Oc2ccc3ccccc3c2)[C@@H]1OC` [Xylβ1→6Gal(Me)3-0-2-naphthol]: in data set [2], the minimal effective concentration was < 1 µM and the “Priming of glycosaminoglycan chains (in words)” value is recorded as “nearly as well as Xylβ-0-2-napthol”.

Consider `CC(=O)N[C@H]1[C@H](O[C@H]2[C@@H](OC(C)=O)[C@@H](COC(C)=O)O[C@@H](OCc3ccc4ccccc4c3)[C@@H]2OC(C)=O)O[C@H](COC(C)=O)[C@@H](OC(C)=O)[C@@H]1OC(C)=O` [AcGlcNAcGal-NM, Peracetylated GlcNAcβ1-3Galβ-0-naphthalenemethanol], for which the “Inhibition of HL-60 / leukocyte adhesion (in words)” value in data set [3] was “inhibits cell adhesion more efficiently than acetylated Galβ1→4GlcNAcβ-X-naphthalenemethanol”. For the same compound, the “Inhibition of sialyl Lewis X formation in HL-60 cells (in words)” value in the data set on sLe^x on HL-60 cells is on record as “inhibit the formation of sialyl Lewis X”. In addition, the “Fold [3H]GlcN-labeled oligosaccharides primed compared with AcLacNAc-NM” value in the data set with F9 cells [4] (>25 μM) was ~10 -fold. The “Priming of oligosaccharides (in words)” value is “much more active than AcLacNAc-NM at low dose” in the data set with F9 cells [4]; “primes oligosaccharides and inhibits cell adhesion more efficiently than acetylated Galβ1→4GlcNAcβ-X-naphthalenemethanol” in the data set with F9 cells [4] (listed as Acetylated GlcNAcβ1→3Galβ-O-naphthalenemethanol); “prime oligosaccharides in cultured cells” with F9 cells [4] (listed as acetylated GlcNAcβ1→3Galβ-O-naphthalenemethanol).

Regarding `OC[C@H]1O[C@@H](O[C@@H]2CO[C@@H](Oc3ccc4ccccc4c3)[C@H](O)[C@H]2O)[C@H](O)[C@@H](O)[C@H]1O` [Galβ1→4Xylβ-0-2-naphthol], in data set [1], the “Uptake (in words)” value is “not taken up al all”.

For `O[C@@H]1[C@@H](O)[C@@H](Oc2ccc3ccccc3c2)OC[C@@H]1O` [L-Araβ-0-2-naphthol, L-Araα-0-2-naphthol], in data set [1], the “Uptake (in words)” value is given as “diffuse more readily than hexosides” and the Uptake is given as 0.8 unit of fluorescence.

Regarding `O[C@H]1[C@@H](O)[C@@H](CO[C@@H]2OC[C@@H](O)[C@H](O)[C@H]2O)O[C@@H](Oc2ccc3ccccc3c2)[C@@H]1O` [Xylβ1→6Galβ-0-2-naphthol], the “Priming of glycosaminoglycan chains (in words)” value in data set [2] was “did not prime [^35 S]-glycosaminoglycans even at 500 μM”.

Turning to `OC[C@H]1O[C@@H](Oc2ccc3ccccc3c2)[C@H](O)[C@@H](O)[C@H]1O` [Galβ-0-2-naphthol], in data set [1], the “Uptake (in words)” value is “slow and reached a lower steady-state level”; the Uptake is recorded as 0.3 unit of fluorescence.

Turning to `CC(=O)O[C@@H]1[C@@H](OC(C)=O)[C@H](Oc2ccc3ccccc3c2)OC[C@H]1OC(C)=O` [Xyl(Ac)3 β-0-2-naphthol], the “Priming of glycosaminoglycan chains (in words)” value in data set [2] is reported as “somewhat less effectively than the non-acetylated compound”.

As for `CC(=O)N[C@H]1[C@H](OCc2ccc3ccccc3c2)O[C@H](COC(C)=O)[C@@H](O[C@@H]2O[C@H](COC(C)=O)[C@H](OC(C)=O)[C@H](OC(C)=O)[C@H]2OC(C)=O)[C@@H]1OC(C)=O` [AcLacNAc-NM, acetylated Galβ1→4GlcNAcβ-O-naphthalenemethanol], the “Uptake (in words)” value with F9 cells [5] is “nearly as well as non-acetylated pentosides linked to naphthol”; in the data set on F9 cells [5] (setting [6]), “nearly as efficient as Xylβ-0-napthol”. For the same compound, the Uptake in the data set with F9 cells [5] is given as 6.4 Arbitray units. Besides, the “Fold reduction in attached HL-60 cells” value in data set [3] (100 μM AcLacNAc-NM, TNF-α HUVEC, static) is listed as 8 -fold. The “Inhibition of HL-60 / leukocyte adhesion (in words)” value is “reduced adhesion” in data set [3] and “The decrease in sLe^x expression had a corresponding effect on cell adhesion” in data set [3] (setting [7]). Besides, the “sLe^x expression on the cell surface, FACS (in words)” value in the data set with sLe^x on HL-60 cells (200 μM acetylated sugars, 40 hours / two days, mAb CSLEX-1) is listed as “the cell population shifted to a lower mean fluorescence”. The “Inhibition of sialyl Lewis X formation in HL-60 cells (in words)” value is given as “inhibit the formation of sialyl Lewis X” in the data set with sLe^x on HL-60 cells and “inhibition of sLe^x expression on the surface of HL-60 cells” in the data set on sLe^x on HL-60 cells (setting [7]). Also, the results for the “Priming of oligosaccharides (in words)” value in the data set on F9 cells [4], in the data set on F9 cells [4] (listed as acetylated Galβ1→4GlcNAcβ-O-naphthalenemethanol) and in the data set on F9 cells [4] (setting [6]) were “primed oligosaccharides in F9 cells; also recorded: A significant lag phase preceded priming of oligosaccharides”, “prime oligosaccharides in cultured cells” and “A large amount of labeled material was generated”, respectively. In the data set on F9 cells [4], the Priming is reported as 250 ^3 H-cpm/μg. For the same compound, the “Fraction of labeled oligosaccharides that were charged (bound to QAE-Sephadex)” value was “About 25%” with F9 cells [4] and “approximately 25%” with F9 cells [4] (setting [6]).

On to `OC[C@H]1O[C@@H](O[C@H]2[C@@H](O)[C@@H](CO)O[C@@H](Oc3cc4ccccc4c4ccccc34)[C@@H]2O)[C@H](O)[C@@H](O)[C@H]1O` [Galβ1→3Galβ-0-9-phenanthrol], for which the Uptake result in data set [1] was “less than 0.1 unit of fluorescence”.

For the compound `OC[C@H]1O[C@@H](Oc2cc3ccccc3c3ccccc23)[C@H](O)[C@@H](O)[C@H]1O` [Galβ-0-9-phenanthrol], the Uptake in data set [1] is on record as 4.2 unit of fluorescence.

In the case of `CC(=O)N[C@H]1[C@H](OCc2ccc3ccccc3c2)O[C@H](CO)[C@@H](O[C@@H]2O[C@H](CO)[C@H](O)[C@H](O)[C@H]2O)[C@@H]1O` [Galβ1→4GlcNAcβ-0-naphthalenemethanol, Galβ1→4GlcNAcβ-0-2-naphthalenemethanol], in the data set on F9 cells [5], the “Uptake (in words)” value is “very limited” and the Uptake is recorded as 0.5 Arbitray units. In addition, in the data set with F9 cells [4], the “Priming of oligosaccharides (in words)” value is “increases with time and does not saturate for several hours”; the Priming is 20 ^3 H-cpm/μg.
